Legend:
[1] = mouse, in vivo
From the text: (§1) The Yale University Institutional Animal Care and Use Committee approved all in vivo studies described. Intra-peritoneal tumors were established in athymic nude mice using 4×10^6 mCherry+OCSC1-F2 ovarian cancer cells (Craveiro, et al., 2013, Cancer Med. 2:751-762). Injection of cancer cells is designated as day 0 and treatment commenced between day 3-5. Establishment of i.p. tumors was confirmed by live imaging (In-Vivo FX PRO, Bruker Corp., Billerica, Mass.) prior to treatment. TRX-E-002-1 was prepared in 20% Captisol or Dexsolve and administered daily at 50 mg/kg or 100 mg/kg. Paclitaxel was given at 12 mg/kg q3d and Cisplatin at 5 mg/kg weekly. All treatments were given i.p. Tumor growth was monitored q3d by live imaging and response to treatment was assessed using ROI area.
To determine activity against primary disease as well as to determine the maximum tolerated dose (MTD), a dose response study was performed. […] Animals however recovered from the distension upon cessation of treatment. […] Thus, the MTD was established at daily 100 mg/kg i.p. and this dose was employed for the succeeding studies employing combination treatment.

[2] = system: i.p. tumors of mCherry+OCSC1-F2 ovarian cancer cells; assay: Recurrent disease xenograft, maintenance treatment after Paclitaxel; type: in vivo
From the text: as §1
Although the standard of care for ovarian cancer patients (platinum plus taxane) is effective initially, most patients develop recurrent disease. Recurrence is the major cause of mortality in ovarian cancer patients, and thus approaches that can prevent recurrence are critical to improve patient survival. As described elsewhere herein, a unique advantage of the xenograft model is the recapitulation of recurrent disease that is typically observed in patients with ovarian cancer. […] Upon recurrence, tumors acquire resistance and become unresponsive to a second-round of Paclitaxel regimen, as observed in ovarian cancer patients. Thus, the model allows one to assess the value of novel compounds in preventing recurrence when given as maintenance treatment.
Thus mice were given Paclitaxel as initial treatment. […] After the 4th dose of Paclitaxel mice were re-randomized into the different maintenance groups. Here the maintenance protocol consisted of continued treatment with Paclitaxel, or maintenance with TRX-E-002-1 (100 mg/kg), or maintenance with Vehicle control.

[3] = system: ERK; assay: Phosphokinase array / Western blot for phosphorylated ERK in OCSCs; type: cell-based, human; conditions: compared to controls; from 2 h up to 24 h post-treatment
Description: SDS-PAGE and Western blots were performed using 20 μg of total protein lysate as described in Kamsteeg, et al., 2003, Oncogene 22:2611-2620. Antibodies used were: mouse anti-phospho ERK (Santa Cruz Biotechnology, Inc., Dallas, Tex.); rabbit anti-phospho c-Jun, rabbit anti c-Jun, rabbit anti-ERK, rabbit anti-cleaved caspase 3 all from Cell Signaling Technology, Danvers, Mass.; and mouse anti-GAPDH (Sigma-Aldrich).
In order to elucidate the early pathways responsible for the sustained cytotoxic effect observed with TRX-E-002-1, a phosphokinase array was performed. The phosphokinase array detected relative phosphorylation levels of 43 different kinases involved in major signal transduction pathways.
The western blot results also validated the decrease in p-ERK in cells treated with TRX-E-002-1. […] The effect on the phosphorylation status of the kinases (upregulation of p-cJun and downregulation of p-ERK) was observed as early as 2 h post-treatment and maintained up to 24 h (FIG. 4A). The phosphorylation levels of c-Jun and ERK correlate with the differential ability of the two doses of TRX-E-002-1 to induce a sustained cytotoxic effect. […] This correlates with the ability of this dose of TRX-E-002-1 to maintain the upregulation of p-cJun and downregulation of p-ERK even when the compound is removed (FIG. 4B). […]

[4] = system: OCSC2 (chemoresistant CD44+/MyD88+ ovarian cancer stem cell clone); assay: Real-time measurement of cell number/cell death and IC50, OCSC2 clone; type: cell-based, human; conditions: OCSC2, 24 hours (FIG. 1G)
Description: CD44+/MyD88+ ovarian cancer stem cell clones (OCSC1 and OCSC2) and CD44−/MyD88− ovarian cancer cells (OCC1 and OCC2) were isolated from either tumor tissue or ascites obtained from patients diagnosed with stage III/IV serous ovarian cancer and propagated (Alvero, et al., 2009, Cell Cycle 8:158-166; Chefetz, et al., 2013, Cell Cycle 12:511-521). The epithelial nature of the isolated cells was determined by immunostaining for Ck18. Purity of the cultures based on CD44 expression by flow cytometry and chemoresistance were routinely tested. Stable expression of nuclear-restricted red fluorescent (in OCSCs) or green fluorescent proteins (in OCCs) was performed by transduction using NUCLIGHT® Red or Green Lentivirus Reagent (Essen Bioscience, Ann Arbor, Mich.). Spheroids were formed from OCSCs by culturing in ultra-low attachment multi-well plates (Corning, Inc., Corning, N.Y.).
Effect of each compound on cell morphology, growth, and viability was assessed using a kinetic live cell imaging system (Incucyte, Essen Bioscience). Proliferation was calculated as previously described (Alvero, et al., 2011, Mol. Cancer Ther. 10:1385-1393) using metrics from either confluence or fluorescent count from nuclear-restricted RFP or GFP. Cell death was quantified; similarly CELLTOX® Green Cytotoxicity Assay (Promega, Madison, Wis.). IC50 was calculated as described using GraphPad Prism (GraphPad Software Inc., LaJolla, Calif.).
A panel of four different SBP subfamilies with cytotoxic activity against chemoresistant ovarian cancer stem cells were tested for efficacy in inducing ovarian cancer stem cell death. […] The efficacy of each analog was determined based on its IC50.
TRX-E-002 exists as a racemic mixture comprised of two enantiomers, enantiomer A (TRX-E-002-1) and enantiomer B (TRX-E-002-2). Thus, the enantiomers were separated and assessed separately. […]

[5] = system: caspase-3/7; assay: Caspase Glo assay, caspase-3/7; type: cell-based, human; conditions: 0.245 μM; at 16 and 24 h post treatment
Description: (§2) Total protein was extracted and measured as described in Kamsteeg, et al., 2003, Oncogene 22:2611-2620. Activity of caspase 3/7 and caspase 9 was quantified using Caspase Glo assay (Promega).
(§3) The activities of caspase-3/7 and caspase-9 were assessed at 2, 4, 6, 8, 16, and 24 hours post-treatment with TRX-E-002-1.

[6] = system: caspase-9; assay: Caspase Glo assay, caspase-9; type: cell-based, human; conditions: 0.245 μM; at 16 and 24 h post treatment
Description: as §2, §3

## COc1cc(C2COc3c(ccc(O)c3C)C2c2ccc(O)cc2)cc(OC)c1O (single isomer, unassigned) [TRX-E-002-1]
[1]
  toxicity at high concentrations in animal studies: evidence of some potential toxicity
[1]; ip
  maximum tolerated dose (MTD): 100 mg/kg
[2]; TRX-E-002-1 100 mg/kg daily i.p. maintenance
  tolerability of the maintenance schedule: no signs of disease or morbidity requiring euthanasia
[2]; after 4th dose of Paclitaxel, TRX-E-002-1 100 mg/kg daily i.p. or continued Paclitaxel
  tumor progression during maintenance treatment: effectively retarded tumor proliferation
[2]; by day 35, TRX-E-002-1 100 mg/kg maintenance
  tumor burden (ROI area) versus group maintained with Paclitaxel: significantly less
[2]; maintenance groups
  gross examination of residual disease: microscopic metastasis
  tumor weights at end point compared to control: significantly reduced
[3]
  levels of phosphorylated-ERK (p-ERK): lower levels
[4]
  IC50: 47 nM
[5]
  caspase-3/7 activity: significant increase
[6]
  caspase-9 activity: significant increase
